This is an account of results in patent publication US6020363A, “Isocoumarin derivatives and use thereof in drugs” (Mercian Corporation, priority 1998, dated 2000).

A short description of the data set: Levels of Orally Administered Test Compounds in Blood Plasma. The format is in vivo, male ICR mice. The settings on record: oral 25 mg/kg. The protocol:
Each of Compound 3 and MI43 was orally administered to fasted male ICR mice (weighing 18-21 g) in a dose of 25 mg/kg. Blood samples were collected from the mice 5 minutes, 30 minutes, 4 hours, 8 hours and 24 hours after administration (3 mice per point for Compound 3 and 5 mice per point for MI43). These blood samples were centrifuged to obtain blood plasma samples. Each of the blood plasma samples was subjected to the following pretreatment and then analyzed by high-performance liquid chromatography (HPLC). 1.8 ml of a saturated aqueous solution of ammonium sulfate and 1.0 ml of methanol were added to and mixed with 0.2 ml of the blood plasma sample. This mixture was shaken with 3.5 ml of ethyl acetate. After this mixture was centrifuged, the ethyl acetate layer was separated. Moreover, the aqueous layer was shaken with 3.5 ml of ethyl acetate, followed by centrifugation. The ethyl acetate layer thus obtained was combined with the previously separated ethyl acetate layer, and this mixture was evaporated to dryness under reduced pressure. The resulting residue was redissolved in 0.2 ml of a 50% aqueous solution of acetonitrile and used as a sample for HPLC.
The analytical conditions for HPLC (using the CCTD system manufactured by Toso Co., Ltd.) were as follows: A YMC A-312 column (ODS 6×150 mm; manufactured by YMC Co., Ltd.) was used as the column. As the mobile phase, a 60:40 mixture of acetonitrile and 0.1% aqueous TFA was used for Compound 3, and a 40:60 mixture of acetonitrile and 0.1% aqueous TFA was used for MI43. The rest compound was eluted at a flow velocity of 1.0 ml/min and detected by UV light at 244 nm.

With `COc1cc(O)c2c(=O)oc(C(C)C(=O)O)cc2c1` (centres unmarked) [Compound 3, 2-(8-hydroxy-6-methoxy-1-oxo-1H-2-benzopyran-3-yl)propionic Acid], for the setting “mouse, plasma, 5 min, read-out: Concentration of unchanged Compound 3 in blood plasma, mean”, the concentration at 5 min was 123 µg/mL. In addition, where the note is “mouse, plasma, 30 min, read-out: Concentration of unchanged Compound 3 in blood plasma, mean”, the concentration at 0.5 h was determined as 131 µg/mL. Besides, the concentration at 4 h (mouse, plasma, 4 hr, read-out: Concentration of unchanged Compound 3 in blood plasma, mean) came to 63 µg/mL. Also, for the setting “mouse, plasma, 8 hr, read-out: Concentration of unchanged Compound 3 in blood plasma, mean”, the concentration at 8 h is 38.4 µg/mL. In addition, for the setting “mouse, plasma, 24 hr, read-out: Concentration of unchanged Compound 3 in blood plasma, mean”, the concentration at 24 h was determined as 0.19 µg/mL. For the same molecule, the Tmax (mouse, plasma, unchanged compound, read-out: time of peak / highest plasma level after administration (converted)) is 30 min. In addition, the “plasma concentration after 8 hours (in words)” value (8 hr) is reported as “remained high even after 8 hours”. Under “24 hr”, the “plasma concentration after 24 hours (in words)” value is given as “dropped to a vary low level after 24 hours”.
